Measurements: the supplement of paper PMC10307832

Tests used:
Experiment in all cases: relative viability (nuclei count vs DMSO), 5 days (fraction); higher = more cells survive
[1] = compound: CC(=O)c1c(C)c2cnc(Nc3ccc(N4CCNCC4)cn3)nc2n(C2CCCC2)c1=O [Palbociclib] + N=C(N)NC(=N)NCCc1ccccc1 [Phenformin] (partner 250 µM)
Method in brief: (§1)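 Values are medians from duplicate plates. Each reflects relative viability, defined as the nuclei count of treated wells over that of vehicle wells. Lung cancer cell lines in 1536-well plates were pin-tool dosed one day after seeding with one drug alone or with a fixed anchor-drug dose plus five library-drug doses (not always all listed) in √10 steps, then fixed, stained and imaged at 4× after 5 days.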

[2] = compound: CC(=O)c1c(C)c2cnc(Nc3ccc(N4CCNCC4)cn3)nc2n(C2CCCC2)c1=O [Palbociclib] + NC(=O)Nc1cc(-c2cccc(F)c2)sc1C(=O)N[C@H]1CCCNC1 [AZD7762] (partner 0.2 µM)
Method in brief: as §1

[3] = compound: CC(=O)c1c(C)c2cnc(Nc3ccc(N4CCNCC4)cn3)nc2n(C2CCCC2)c1=O [Palbociclib] + Nc1nc2[nH]cc(CCc3ccc(C(=O)N[C@@H](CCC(=O)O)C(=O)O)cc3)c2c(=O)[nH]1 [Pemetrexed] (partner 0.2 µM)
Method in brief: as §1

[4] = compound: CC(=O)c1c(C)c2cnc(Nc3ccc(N4CCNCC4)cn3)nc2n(C2CCCC2)c1=O [Palbociclib] + Nc1ncn([C@H]2C[C@H](O)[C@@H](CO)O2)c(=O)n1 [Decitabine] (partner 2 µM)
Method in brief: as §1

Cell Line	relative viability ([1]; first compound 0.01 µM)	relative viability ([1]; first compound 0.03162 µM)	relative viability ([1]; first compound 0.1 µM)	relative viability ([1]; first compound 0.3162 µM)	relative viability ([1]; first compound 1 µM)	relative viability ([2]; first compound 0.01 µM)	relative viability ([2]; first compound 0.03162 µM)	relative viability ([2]; first compound 0.1 µM)	relative viability ([2]; first compound 0.3162 µM)	relative viability ([2]; first compound 1 µM)	relative viability ([3]; first compound 0.01 µM)	relative viability ([3]; first compound 0.03162 µM)	relative viability ([3]; first compound 0.1 µM)	relative viability ([3]; first compound 0.3162 µM)	relative viability ([3]; first compound 1 µM)	relative viability ([4]; first compound 0.01 µM)	relative viability ([4]; first compound 0.03162 µM)	relative viability ([4]; first compound 0.1 µM)	relative viability ([4]; first compound 0.3162 µM)	relative viability ([4]; first compound 1 µM)
LCLC-103H	0.33	0.28	0.318	0.248	0.223	0.731	0.55	0.716	0.708	0.539	0.432	0.495	0.484	0.443	0.412	0.675	0.76	0.674	0.679	0.627
LU99A	0.851	0.507	0.688	0.837	0.602	0.405		0.277	0.34	0.27	0.176		0.158	0.171	0.19	0.926		0.863	0.813	0.684
201T	0.469	0.359	0.359	0.381	0.311	0.573	0.475	0.905	0.751	0.633	0.343	0.342	0.358	0.372	0.283	0.827	0.836	0.836	0.834	0.665
NCI-H1563	0.709	0.636	0.639	0.654	0.537						0.836	0.729	0.746	0.795	0.629					
NCI-H2347	0.612		0.285	0.26	0.182	0.793	0.638	0.646	0.633	0.48	0.39	0.407	0.368	0.413	0.386	0.597	0.656	0.599	0.585	0.504
UMC-11	0.303	0.278	0.292	0.292	0.24						0.795	0.726	0.594	0.473	0.308	0.696	0.624	0.363	0.48	0.336
NCI-H661	0.264	0.29	0.258	0.279	0.282						0.878	0.792	0.645	0.571	0.416	0.547	0.484	0.476	0.461	0.39
COR-L23	0.438	0.37	0.304	0.345	0.263						0.183	0.202	0.201	0.191	0.203	0.414	0.369	0.322	0.363	0.33
COR-L 105	0.467	0.54	0.381	0.385	0.33						1.21	0.802	0.778	0.697	0.47	0.777	0.629	0.554	0.604	0.452
NCI-H2228	0.322	0.287	0.293	0.258	0.307						0.312	0.352	0.337	0.341	0.346					
NCI-H727	0.472	0.453	0.422	0.467	0.362	0.593	0.511	0.584	0.447	0.461						0.866	0.964	0.895	0.829	0.669
NCI-H520	0.5	0.321	0.348	0.407	0.227						0.636	0.573	0.554	0.331	0.267	0.491	0.417	0.423	0.395	0.29
NCI-H1703						0.12		0.109	0.0999	0.14										
NCI-H2023	0.405	0.381	0.321	0.319	0.218						0.203	0.188	0.169	0.174	0.142	0.225	0.189	0.254	0.272	0.251
SW 1573	0.364	0.324	0.234	0.216	0.219						0.773	0.729	0.646	0.681	0.461	0.573	0.455	0.598	0.479	0.326
CAL-12T	0.603	0.475	0.429	0.421	0.324	0.646	0.569	0.516	0.51	0.409	1.14	1.1	0.924	0.672	0.637					
ABC-1	0.227	0.202	0.232	0.233	0.24	0.931	0.614	0.727	0.957	0.752						0.948	1.03	1.23	0.978	0.873
SK-LU-1	0.546	0.418	0.309	0.314	0.254						1.02	0.96	0.836	0.753	0.556	0.644	0.659	0.6	0.639	0.505
